Measured values published in PubChem BioAssay (NCI).
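Exposure lasted 48 hours, with cells grown in 96-well plates and compounds tested at five concentrations. Definition used: TGI = concentration required for complete inhibition of growth.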

Experiments:
Experiment in all cases: NCI anticancer screen, dose series, 48 h
786-0 renal = tested on: 786-0 renal
A498 renal = tested on: A498 renal
A549 NSCLC = tested on: A549 NSCLC
ACHN renal = tested on: ACHN renal
CAKI-1 renal = tested on: CAKI-1 renal
CCRF-CEM leukemia = tested on: CCRF-CEM leukemia
DLD-1 colon = tested on: DLD-1 colon
DMS 114 small cell lung = tested on: DMS 114 small cell lung
DMS 273 small cell lung = tested on: DMS 273 small cell lung
EKVX NSCLC = tested on: EKVX NSCLC
HCC-2998 colon = tested on: HCC-2998 colon
HCT-116 colon = tested on: HCT-116 colon
HCT-15 colon = tested on: HCT-15 colon
HL-60(TB) leukemia = tested on: HL-60(TB) leukemia
HOP-18 NSCLC = tested on: HOP-18 NSCLC
HOP-62 NSCLC = tested on: HOP-62 NSCLC
HOP-92 NSCLC = tested on: HOP-92 NSCLC
HT29 colon = tested on: HT29 colon
IGROV1 ovarian = tested on: IGROV1 ovarian
K-562 leukemia = tested on: K-562 leukemia
KM12 colon = tested on: KM12 colon
KM20L2 colon = tested on: KM20L2 colon
LOX IMVI melanoma = tested on: LOX IMVI melanoma
LXFL 529 NSCLC = tested on: LXFL 529 NSCLC
M14 melanoma = tested on: M14 melanoma
M19-MEL melanoma = tested on: M19-MEL melanoma
MALME-3M melanoma = tested on: MALME-3M melanoma
MOLT-4 leukemia = tested on: MOLT-4 leukemia
NCI-H226 lung = tested on: NCI-H226 lung
NCI-H23 lung = tested on: NCI-H23 lung
NCI-H460 lung = tested on: NCI-H460 lung
OVCAR-3 ovarian = tested on: OVCAR-3 ovarian
OVCAR-4 ovarian = tested on: OVCAR-4 ovarian
OVCAR-5 ovarian = tested on: OVCAR-5 ovarian
OVCAR-8 ovarian = tested on: OVCAR-8 ovarian
RPMI-8226 leukemia = tested on: RPMI-8226 leukemia
RXF 393 renal = tested on: RXF 393 renal
RXF-631 renal = tested on: RXF-631 renal
SF-268 CNS = tested on: SF-268 CNS
SF-295 CNS = tested on: SF-295 CNS
SF-539 CNS = tested on: SF-539 CNS
SK-MEL-2 melanoma = tested on: SK-MEL-2 melanoma
SK-MEL-28 melanoma = tested on: SK-MEL-28 melanoma
SK-MEL-5 melanoma = tested on: SK-MEL-5 melanoma
SN12C renal = tested on: SN12C renal
SNB-19 CNS = tested on: SNB-19 CNS
SNB-75 CNS = tested on: SNB-75 CNS
SNB-78 CNS = tested on: SNB-78 CNS
SR leukemia = tested on: SR leukemia
SW-620 colon = tested on: SW-620 colon
TK-10 renal = tested on: TK-10 renal
UACC-257 melanoma = tested on: UACC-257 melanoma
UACC-62 melanoma = tested on: UACC-62 melanoma
UO-31 renal = tested on: UO-31 renal
XF 498 CNS = tested on: XF 498 CNS
COLO 205 colon = tested on: COLO 205 colon
NCI-H522 lung = tested on: NCI-H522 lung
SK-OV-3 ovarian = tested on: SK-OV-3 ovarian
U251 CNS = tested on: U251 CNS

`COC(=O)c1ncc2c(=O)[nH]c3ccccc3c2c1C(=O)OC` was tested, and the TGI (786-0 renal) was > 100 µM, the TGI (A498 renal) was > 100 µM and the TGI (A549 NSCLC) was > 100 µM. The TGI (ACHN renal) was > 100 µM, the TGI (CAKI-1 renal) was > 100 µM and the TGI (CCRF-CEM leukemia) was > 100 µM. For the same molecule, the TGI (DLD-1 colon) was > 100 µM, the TGI (DMS 114 small cell lung) was > 100 µM and the TGI (DMS 273 small cell lung) was > 100 µM. The TGI (EKVX NSCLC) was > 100 µM, the TGI (HCC-2998 colon) was > 100 µM and the TGI (HCT-116 colon) was > 100 µM. The TGI (HCT-15 colon) was > 100 µM, the TGI (HL-60(TB) leukemia) was > 100 µM and the TGI (HOP-18 NSCLC) was > 100 µM. For the same molecule, the TGI (HOP-62 NSCLC) was > 100 µM, the TGI (HOP-92 NSCLC) was > 100 µM and the TGI (HT29 colon) was > 100 µM. The TGI (IGROV1 ovarian) was > 100 µM, the TGI (K-562 leukemia) was > 100 µM and the TGI (KM12 colon) was > 100 µM. The TGI (KM20L2 colon) was > 100 µM, the TGI (LOX IMVI melanoma) was > 100 µM and the TGI (LXFL 529 NSCLC) was > 100 µM. The TGI (M14 melanoma) was > 100 µM, the TGI (M19-MEL melanoma) was > 100 µM and the TGI (MALME-3M melanoma) was > 100 µM. The TGI (MOLT-4 leukemia) was > 100 µM, the TGI (NCI-H226 lung) was > 100 µM and the TGI (NCI-H23 lung) was > 100 µM. For the same molecule, the TGI (NCI-H460 lung) was 47.3 µM, the TGI (OVCAR-3 ovarian) was > 100 µM and the TGI (OVCAR-4 ovarian) was > 100 µM. For the same molecule, the TGI (OVCAR-5 ovarian) was > 100 µM, the TGI (OVCAR-8 ovarian) was > 100 µM and the TGI (RPMI-8226 leukemia) was > 100 µM. For the same molecule, the TGI (RXF 393 renal) was > 100 µM, the TGI (RXF-631 renal) was > 100 µM and the TGI (SF-268 CNS) was > 100 µM. For the same molecule, the TGI (SF-295 CNS) was > 100 µM, the TGI (SF-539 CNS) was > 100 µM and the TGI (SK-MEL-2 melanoma) was > 100 µM. The TGI (SK-MEL-28 melanoma) was > 100 µM, the TGI (SK-MEL-5 melanoma) was > 100 µM and the TGI (SN12C renal) was > 100 µM. The TGI (SNB-19 CNS) was > 100 µM, the TGI (SNB-75 CNS) was > 100 µM and the TGI (SNB-78 CNS) was > 100 µM. The TGI (SR leukemia) was > 100 µM, the TGI (SW-620 colon) was > 100 µM and the TGI (TK-10 renal) was > 100 µM. For the same molecule, the TGI (UACC-257 melanoma) was > 100 µM, the TGI (UACC-62 melanoma) was > 100 µM and the TGI (UO-31 renal) was > 100 µM. For the same molecule, the TGI (XF 498 CNS) was > 100 µM.
In the case of `O=C(Cc1nc2ccccc2o1)C(=O)Nc1cccc(Cl)c1`, the TGI (786-0 renal) is reported as > 100 µM, the TGI (A498 renal) is reported as > 100 µM and the TGI (A549 NSCLC) is reported as > 100 µM. For the same molecule, the TGI (ACHN renal) was > 100 µM, the TGI (CAKI-1 renal) was > 100 µM and the TGI (CCRF-CEM leukemia) was > 100 µM. For the same molecule, the TGI (COLO 205 colon) was > 100 µM, the TGI (DLD-1 colon) was > 100 µM and the TGI (DMS 114 small cell lung) was > 100 µM. The TGI (EKVX NSCLC) was > 100 µM, the TGI (HCC-2998 colon) was > 100 µM and the TGI (HCT-116 colon) was > 100 µM. For the same molecule, the TGI (HCT-15 colon) was > 100 µM, the TGI (HL-60(TB) leukemia) was > 100 µM and the TGI (HOP-18 NSCLC) was > 100 µM. For the same molecule, the TGI (HOP-62 NSCLC) was > 100 µM, the TGI (HOP-92 NSCLC) was > 100 µM and the TGI (HT29 colon) was > 100 µM. The TGI (IGROV1 ovarian) was > 100 µM, the TGI (K-562 leukemia) was > 100 µM and the TGI (KM12 colon) was > 100 µM. For the same molecule, the TGI (KM20L2 colon) was > 100 µM, the TGI (LXFL 529 NSCLC) was > 100 µM and the TGI (M14 melanoma) was > 100 µM. The TGI (M19-MEL melanoma) was > 100 µM, the TGI (MALME-3M melanoma) was > 100 µM and the TGI (MOLT-4 leukemia) was > 100 µM. For the same molecule, the TGI (NCI-H226 lung) was > 100 µM, the TGI (NCI-H23 lung) was > 100 µM and the TGI (NCI-H460 lung) was > 100 µM. The TGI (NCI-H522 lung) was > 100 µM, the TGI (OVCAR-3 ovarian) was > 100 µM and the TGI (OVCAR-4 ovarian) was > 100 µM. For the same molecule, the TGI (OVCAR-8 ovarian) was > 100 µM, the TGI (RXF 393 renal) was > 100 µM and the TGI (SF-268 CNS) was > 100 µM. The TGI (SF-295 CNS) was > 100 µM, the TGI (SF-539 CNS) was > 100 µM and the TGI (SK-MEL-2 melanoma) was > 100 µM. For the same molecule, the TGI (SK-MEL-28 melanoma) was > 100 µM, the TGI (SK-OV-3 ovarian) was > 100 µM and the TGI (SN12C renal) was > 100 µM. For the same molecule, the TGI (SNB-19 CNS) was > 100 µM, the TGI (SNB-75 CNS) was > 100 µM and the TGI (SNB-78 CNS) was > 100 µM. For the same molecule, the TGI (SR leukemia) was > 100 µM, the TGI (SW-620 colon) was > 100 µM and the TGI (TK-10 renal) was > 100 µM. The TGI (U251 CNS) was > 100 µM, the TGI (UACC-257 melanoma) was > 100 µM and the TGI (UACC-62 melanoma) was > 100 µM. The TGI (UO-31 renal) was > 100 µM and the TGI (XF 498 CNS) was > 100 µM.
